This passage reports GI50 results from US12558428B2, “Heterobifunctional compounds and their use in treating disease” (Halda Therapeutics OpCo, Inc., priority 2024, dated 2026).

Bounds are passed on as bounds.

Usually GI50 stands for the concentration at which growth is held to half of that of the control.

What all share (type): cell-based
The test system of test [1] is MCF7 cells (ATCC #HTB-22). In words: Cellular growth inhibition assay, MCF7 cells purchased from ATCC. Particulars: Homo sapiens, MCF7, 144 h, Table 8-A; MCF7 cells purchased from ATCC; six days; CellTiter-Glo; read-out: GI50. In outline:
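GI50 values come from a four-parameter fit of CellTiter-Glo 2.0 luminescence after six days of compound exposure at 37° C. Seeding density depended on the source: 225 cells/well for ECACC MCF7, 1,500 for ATCC. Medium was RPMI 1640 with 10% FBS and 0.2 U/ml insulin.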

In test [2] the test system is T-Rex 293 cells having increased expression of estrogen receptor alpha protein. In words: Cellular growth inhibition assay, T-Rex 293 cells, (+) doxycycline. As to conditions: T-REx-293, 72 h, Table 7-A; T-Rex 293 cells with doxycycline (increased ERα expression); 72 hours; CellTiter-Glo; read-out: (+) Dox GI50. Summed up: (§1)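 Cells of an inducible ERα-expressing T-Rex 293 clone are seeded in charcoal-dextran FBS medium with or without 3 ng/mL doxycycline, then treated after 24 h with compound dilutions (0.5% DMSO) for 72 h. Growth inhibition is measured by CellTiter-Glo luminescence and expressed as GI50.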
On the technique in general: Cellular ATP, detected with luciferase, serves as a proxy for viable cell number.

Test [3] deals with T-Rex 293 cells lacking increased expression of estrogen receptor alpha protein. In words: Cellular growth inhibition assay, T-Rex 293 cells, (−) doxycycline. Particulars: T-REx-293, 72 h, Table 7-A; T-Rex 293 cells without doxycycline (lacking increased ERα expression); 72 hours; CellTiter-Glo; read-out: (−) Dox GI50. Summed up: as §1

`Cc1sc2c(c1C)C(c1ccc(CC(=O)N3CCC4(CCN(c5ccc(C6=C(c7ccc(Cl)cc7Cl)CCCc7cc(C(=O)O)ccc76)cc5)CC4)C3)cc1)=N[C@@H](C)c1nnc(C)n1-2` [IV-12]: the concentration for 50% growth inhibition (GI50) in test [1] lay in the range of 50 to 500 nM; in test [2], 50 to 500 nM; in test [3], 500 to 2500 nM.

On to `Cc1sc2c(c1C)C(c1ccc(N3CC(CN4CCN(c5ccc(C6=C(c7ccc(Cl)cc7Cl)CCCc7cc(C(=O)O)ccc76)cc5)CC4)C3)cc1)=N[C@@H](Cc1ncco1)c1nnc(C)n1-2` [IV-13], for which the GI50 in test [1] is less than 50 nM; in test [2] it was less than 50 nM; in test [3], 50 to 500 nM.

As for `Cc1sc2c(c1C)C(c1ccc(N3CCC(CN4CCN(c5ccc(C6=C(c7ccc(Cl)cc7Cl)CCCc7cc(C(=O)O)ccc76)cc5)CC4)CC3)cc1)=N[C@@H](Cc1ncco1)c1nnc(C)n1-2` [IV-14], the GI50 in test [1] was less than 50 nM; in test [2], less than 50 nM; in test [3] it was 500 to 2500 nM.

Take `Cc1sc2c(c1C)C(c1ccc(N3CCC(O)(CN4CCN(c5ccc(C6=C(c7ccc(Cl)cc7Cl)CCCc7cc(C(=O)O)ccc76)cc5)CC4)CC3)cc1)=N[C@H](C)c1nnc(C)n1-2` [IV-15]: the GI50 in test [1] is 500 to 2500 nM; in test [2], greater than 2500 nM; in test [3], greater than 2500 nM.

Regarding `Cc1sc2c(c1C)C(c1ccc(N3CCC(O)(CN4CCN(c5ccc(C6=C(c7ccccc7)CCCc7cc(C(=O)O)ccc76)cc5)CC4)CC3)cc1)=N[C@@H](C)c1nnc(C)n1-2` [IV-16], the GI50 in test [1] was less than 50 nM; in test [2], less than 50 nM; in test [3] it was 500 to 2500 nM.

For the compound `Cc1sc2c(c1C)C(c1ccc(N3CCC(O)(CN4CCN(c5ccc(C6=C(c7ccccc7)CCCc7cc(O)ccc76)cc5)CC4)CC3)cc1)=N[C@@H](C)c1nnc(C)n1-2` [IV-17], the values for the GI50 in test [1], in test [2] and in test [3] were less than 50 nM, less than 50 nM and 500 to 2500 nM, respectively.

For `Cc1sc2c(c1C)C(c1ccc(N3CCC(O)(CN4CCN(c5ccc(C6=C(c7ccccc7Cl)CCCc7cc(C(=O)O)ccc76)cc5)CC4)CC3)cc1)=N[C@@H](C)c1nnc(C)n1-2` [IV-18], the GI50 is less than 50 nM in test [1], less than 50 nM in test [2] and 500 to 2500 nM in test [3].

As for `Cc1sc2c(c1C)C(c1ccc(N3CCC(O)(CN4CCN(c5ccc(C6=C(c7ccc(Cl)cc7Cl)CCCc7cc(O)ccc76)cc5)CC4)CC3)cc1)=N[C@@H](C)c1nnc(C)n1-2` [IV-19], the GI50 in test [1] was 50 to 500 nM; in test [2] it was less than 50 nM; in test [3] it was 500 to 2500 nM.

For `Cc1sc2c(c1C)C(c1ccc(N3CCC(O)(CN4CCN(c5ccc(C6=C(c7ccccc7Cl)CCCc7cc(O)ccc76)cc5)CC4)CC3)cc1)=N[C@@H](C)c1nnc(C)n1-2` [IV-20], the GI50 is less than 50 nM in test [1], less than 50 nM in test [2] and 500 to 2500 nM in test [3].

In the case of `Cc1sc2c(c1C)C(c1ccc(N3CCC(F)(CN4CCC(c5ccc(C6=C(c7ccc(Cl)cc7Cl)CCCc7cc(C(=O)O)ccc76)cc5)CC4)CC3)cc1)=N[C@@H](C)c1nnc(C)n1-2` [IV-21], the GI50 in test [1] was 50 to 500 nM; in test [2] it was less than 50 nM; in test [3] it was 500 to 2500 nM.

In the case of `Cc1sc2c(c1C)C(c1ccc(N3CC(CN4CC(CN5CC(c6ccc(C7=C(c8ccccc8)CCCc8cc(C(=O)O)ccc87)cc6)C5)C4)C3)cc1)=N[C@@H](C)c1nnc(C)n1-2` [IV-22], the GI50 in test [1] is less than 50 nM; in test [2], less than 50 nM; in test [3] it was 50 to 500 nM.

`Cc1sc2c(c1C)C(c1ccc(N3CC(CC4CN(CC5CN(c6ccc(C7=C(c8ccccc8)CCCc8cc(C(=O)O)ccc87)cc6)C5)C4)C3)cc1)=N[C@@H](C)c1nnc(C)n1-2` [IV-23]: the results for the GI50 in test [1], in test [2] and in test [3] were less than 50 nM, less than 50 nM and 50 to 500 nM, respectively.

Take `Cc1sc2c(c1C)C(c1ccc(N3CC(C[C@H]4CC[C@H](CN5CC(c6ccc(C7=C(c8ccccc8)CCCc8cc(C(=O)O)ccc87)cc6)C5)CC4)C3)cc1)=N[C@@H](C)c1nnc(C)n1-2` [IV-24]: the GI50 in test [1] is less than 50 nM; in test [2], less than 50 nM; in test [3], 500 to 2500 nM.

With `Cc1sc2c(c1C)C(c1ccc(N3CC(CN4CCN(CC5CN(c6ccc(C7=C(c8ccc(F)cc8F)CCCc8cc(C(=O)O)ccc87)cc6)C5)CC4)C3)cc1)=N[C@@H](C)c1nnc(C)n1-2` [IV-25], the GI50 in test [1] is less than 50 nM; in test [2], less than 50 nM; in test [3] it was 50 to 500 nM.

For `Cc1sc2c(c1C)C(c1ccc(N3CCC(O)(CN4CCN(c5ccc(C6=C(c7ccc(F)cc7F)CCCc7cc(C(=O)O)ccc76)cc5)CC4)CC3)cc1)=N[C@@H](C)c1nnc(C)n1-2` [IV-26], the GI50 was less than 50 nM in test [1], less than 50 nM in test [2] and 500 to 2500 nM in test [3].

Turning to `Cc1sc2c(c1C)C(c1ccc(N3CCC(F)(CN4CCN(c5ccc(C6=C(c7ccc(Cl)cc7Cl)CCCc7cc(C(=O)O)ccc76)cc5)CC4)CC3)cc1)=N[C@@H](C)c1nnc(C)n1-2` [IV-27], the figures for the GI50 in test [1], in test [2] and in test [3] were 50 to 500 nM, 50 to 500 nM and 500 to 2500 nM, respectively.

Take `Cc1sc2c(c1C)C(c1ccc(N3CCC(O)(CN4CCN(c5ccc(C6=C(c7ccccc7)CCCc7cc(C(=O)O)ccc76)c(F)c5)CC4)CC3)cc1)=N[C@@H](C)c1nnc(C)n1-2` [IV-28]: the GI50 in test [1] is less than 50 nM; in test [2], less than 50 nM; in test [3] it was 500 to 2500 nM.

On to `Cc1sc2c(c1C)C(c1ccc(N3CC(CC4(O)CCN(CC5CN(c6ccc(C7=C(c8ccccc8)CCCc8cc(C(=O)O)ccc87)cc6)C5)CC4)C3)cc1)=N[C@@H](C)c1nnc(C)n1-2` [IV-29], for which the GI50 in test [1] is less than 50 nM; in test [2] it was less than 50 nM; in test [3], 50 to 500 nM.

Turning to `Cc1sc2c(c1C)C(c1ccc(N3CCC(O)(CN4CCN(c5ccc(C6=C(c7ccc(Cl)cc7Cl)CCCc7cc(C(=O)O)ccc76)cc5)CC4)CC3)cc1)=N[C@H](Cc1ncco1)c1nnc(C)n1-2` [IV-30], the results for the GI50 in test [1], in test [2] and in test [3] were 50 to 500 nM, 500 to 2500 nM and 500 to 2500 nM, respectively.

In the case of `Cc1sc2c(c1C)C(c1ccc(N3CCC(O)(CN4CCN(c5ccc(C6=C(c7ccc(Cl)cc7Cl)CCCc7cc(C(=O)O)ccc76)cc5)CC4)CC3)cc1)=N[C@@H](Cc1ncco1)c1nnc(C)n1-2` [IV-31], the GI50 in test [1] was less than 50 nM; in test [2] it was less than 50 nM; in test [3], 50 to 500 nM.

With `Cc1sc2c(c1C)C(c1ccc(C3CN(C[C@H]4CC[C@H](CN5CC(c6ccc(C7=C(c8ccccc8)CCCc8cc(C(=O)O)ccc87)cc6)C5)CC4)C3)cc1)=N[C@@H](C)c1nnc(C)n1-2` [IV-32], the GI50 in test [1] is 50 to 500 nM; in test [2], less than 50 nM; in test [3], 50 to 500 nM.

In the case of `Cc1sc2c(c1C)C(c1ccc(N3CCC(O)(CN4CCN(c5ccc(C6=C(c7ccccc7)CCCc7cc(C(=O)O)ccc76)cc5F)CC4)CC3)cc1)=N[C@@H](C)c1nnc(C)n1-2` [IV-33], the GI50 in test [1] was less than 50 nM; in test [2] it was less than 50 nM; in test [3], 500 to 2500 nM.

On to `Cc1sc2c(c1C)C(c1ccc(N3CCC(O)(CN4CCN(c5ccc(C6=C(c7ccccc7Cl)CCCc7cc(C(=O)O)ccc76)c(F)c5)CC4)CC3)cc1)=N[C@@H](C)c1nnc(C)n1-2` [IV-34], for which the GI50 is less than 50 nM in test [1], less than 50 nM in test [2] and 50 to 500 nM in test [3].

For `Cc1sc2c(c1C)C(c1ccc(N3CCC(O)(CN4CCN(c5ccc(C6=C(c7ccccc7Cl)CCCc7cc(C(=O)O)ccc76)cc5F)CC4)CC3)cc1)=N[C@@H](C)c1nnc(C)n1-2` [IV-35], the figures for the GI50 in test [1], in test [2] and in test [3] were less than 50 nM, less than 50 nM and 500 to 2500 nM, respectively.
